This is an account of results in the supplement of paper PMC7108870.

Assay [1] concerns HEK293sieSTAT3(Y640F). Description: drug sensitivity score (DSS), cytotoxicity CellTox Green (DSS (dimensionless)); higher = more cytotoxic; extreme values may be limits of the assay. Particulars: 72 h; STAT3 variant: Y640F (constitutively active). In outline: (§1)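 A drug sensitivity score, based on the area of the dose-response curve, was calculated in Breeze after normalising values to negative and positive control wells. It came from HEK293 cells carrying a STAT3-dependent luciferase reporter and overexpressing wild-type or mutant STAT3, plated at 20 μl of 100,000 cells/ml onto compounds acoustically pre-plated at 5 concentrations in 10-fold dilutions in 384-well plates. Following 72 hours at 37°C and 5% CO2, CellTox Green fluorescence (485/520 nm) and then CellTiter-Glo luminescence were read on a PHERAstar FS.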

Assay [2] relates to HEK293sieSTAT3(wt). Described as above. Particulars: 72 h; STAT3 variant: wild type. In outline:
as §1

Assay [3] concerns HEK293sieSTAT3(Y640F). As to the kind of experiment: drug sensitivity score (DSS), viability CellTiter-Glo (DSS (dimensionless)); higher = more growth inhibition; extreme values may be limits of the assay. Particulars: 72 h; STAT3 variant: Y640F (constitutively active). An outline of the steps: as §1
Assay [4] relates to HEK293sieSTAT3(wt). The assay is described as above. As to conditions: 72 h; STAT3 variant: wild type. An outline of the steps:
as §1

Turning to `CC(=O)OC[C@H]1O[C@@H]([S-])[C@H](OC(C)=O)[C@@H](OC(C)=O)[C@@H]1OC(C)=O.CCP(CC)CC.[Au+]` [Auranofin] (top concentration tested 2500 nM), the drug sensitivity score in the assay with HEK293sieSTAT3(Y640F) [1] is 6.36; in the assay with HEK293sieSTAT3(wt) [2] it was 9.45; with HEK293sieSTAT3(Y640F) [3] it was 9.25; in the assay with HEK293sieSTAT3(wt) [4], 8.14.
With `Cc1ccccc1C(C(=O)NC1CCCCC1)N(C(=O)Cn1ccnc1C)c1cccc(F)c1` (stereo not drawn) [AGI-5198] (top concentration tested 10000 nM), the drug sensitivity score with HEK293sieSTAT3(Y640F) [1] was found to be 0; in the assay with HEK293sieSTAT3(wt) [2], 0; in the assay with HEK293sieSTAT3(Y640F) [3], 0.76; in the assay on HEK293sieSTAT3(wt) [4], 1.02.
With `Cc1nn(C)c(COc2ccc(N3CCN(S(=O)(=O)N(C)C)CC3)cc2)c1-c1cccc2c(CCCOc3cccc4ccccc34)c(C(=O)O)n(CCN3CCOCC3)c12` (top concentration tested 50000 nM), the drug sensitivity score with HEK293sieSTAT3(Y640F) [1] turned out to be 7.51; with HEK293sieSTAT3(wt) [2], 7.01; in the assay on HEK293sieSTAT3(Y640F) [3] it was 9.56; in the assay with HEK293sieSTAT3(wt) [4] it was 5.26.
Regarding `COc1ccc(C[C@H](NC(=O)[C@H](C)NC(=O)CN2CCOCC2)C(=O)N[C@@H](Cc2ccccc2)C(=O)C2(C)CO2)cc1` (stereo in doubt) [ONX-0914] (top concentration tested 10000 nM), the drug sensitivity score worked out at 18.6 in the assay on HEK293sieSTAT3(Y640F) [1], 19.9 in the assay with HEK293sieSTAT3(wt) [2], 19.9 with HEK293sieSTAT3(Y640F) [3] and 21.7 with HEK293sieSTAT3(wt) [4].
For the compound `N#Cc1ccc(C(c2ccc(C#N)cc2)n2cncn2)cc1` [Letrozole] (top concentration tested 10000 nM), the drug sensitivity score amounted to 0 in the assay with HEK293sieSTAT3(Y640F) [1], 0.02 in the assay on HEK293sieSTAT3(wt) [2], 4.14 in the assay with HEK293sieSTAT3(Y640F) [3] and 0.66 with HEK293sieSTAT3(wt) [4].
On the same counts, the results for `CCn1c(-c2nonc2N)nc2c(C#CC(C)(C)O)ncc(OC[C@H]3CCCNC3)c21` (top concentration tested 10000 nM) are 0.19, 1.28, 13.7 and 16.9.
On the same counts, the results for `CC[C@@]1(O)C(=O)OCc2c1cc1n(c2=O)Cc2cc3c(CN(C)C)c(O)ccc3nc2-1` [Topotecan] (top concentration tested 10000 nM) are 8.8, 13, 28.1 and 27.
On the same counts, the results for `COCC(=O)NC/C=C/c1ccc2ncnc(Nc3ccc(Oc4ccc(C)nc4)c(C)c3)c2c1` (top concentration tested 10000 nM) are 0, 2.66, 1.25 and 3.61.
With `C[C@@H]1COC(Nc2ccc3ncnc(Nc4ccc(OCc5nccs5)c(Cl)c4)c3c2)=N1` [Varlitinib] (top concentration tested 10000 nM), the drug sensitivity score with HEK293sieSTAT3(Y640F) [1] was 0; in the assay with HEK293sieSTAT3(wt) [2] it was 0; in the assay with HEK293sieSTAT3(Y640F) [3], 0.4; with HEK293sieSTAT3(wt) [4], 0.
As to `CNc1ncc2cc(-c3cc(NC(=O)NCCC(C)(C)C)c(F)cc3C)c(C)nc2n1` (top concentration tested 10000 nM), the drug sensitivity score with HEK293sieSTAT3(Y640F) [1] amounted to 0; with HEK293sieSTAT3(wt) [2] it was 0.9; with HEK293sieSTAT3(Y640F) [3], 5.64; in the assay on HEK293sieSTAT3(wt) [4], 3.99.
With `NS(=O)(=O)NCCNc1nonc1/C(=N/O)Nc1ccc(F)c(Br)c1` [Epacadostat] (top concentration tested 10000 nM), the drug sensitivity score worked out at 0 with HEK293sieSTAT3(Y640F) [1], 0 in the assay on HEK293sieSTAT3(wt) [2], 1.76 in the assay with HEK293sieSTAT3(Y640F) [3] and 0.37 with HEK293sieSTAT3(wt) [4].
As to `Cn1c(=O)c(F)c(Nc2ccc(I)cc2F)c2c(=O)n(C[C@@H](O)CO)cnc21` [TAK-733] (top concentration tested 1000 nM), the drug sensitivity score in the assay on HEK293sieSTAT3(Y640F) [1] turned out to be 0; in the assay with HEK293sieSTAT3(wt) [2], 0; in the assay with HEK293sieSTAT3(Y640F) [3], 1.47; in the assay with HEK293sieSTAT3(wt) [4], 0.
On to `NC[C@@](O)(c1ccc(Cl)cc1)c1ccc(-c2cn[nH]c2)cc1` (top concentration tested 10000 nM), for which the drug sensitivity score was found to be 6.08 in the assay on HEK293sieSTAT3(Y640F) [1], 6.61 in the assay with HEK293sieSTAT3(wt) [2], 7.85 in the assay with HEK293sieSTAT3(Y640F) [3] and 6.8 in the assay with HEK293sieSTAT3(wt) [4].
With `C=CCn1c(=O)c2cnc(Nc3ccc(N4CCN(C)CC4)cc3)nc2n1-c1cccc(C(C)(C)O)n1` [MK1775] (top concentration tested 10000 nM), the drug sensitivity score in the assay with HEK293sieSTAT3(Y640F) [1] was 10.6; in the assay with HEK293sieSTAT3(wt) [2] it was 16.5; in the assay with HEK293sieSTAT3(Y640F) [3], 20.4; in the assay on HEK293sieSTAT3(wt) [4], 19.4.
On the same counts, the results for `O=P1(NCCCl)OCCCN1CCCl` (stereo not drawn) [Ifosfamide] (top concentration tested 10000 nM) are 0, 0, 0 and 0.
As to `COc1cc(Nc2ncc(F)c(Nc3ccc4c(n3)N(COP(=O)(O)O)C(=O)C(C)(C)O4)n2)cc(OC)c1OC` [Fostamatinib] (top concentration tested 2500 nM), the drug sensitivity score with HEK293sieSTAT3(Y640F) [1] turned out to be 2.07; in the assay on HEK293sieSTAT3(wt) [2], 3.18; with HEK293sieSTAT3(Y640F) [3] it was 4.33; in the assay on HEK293sieSTAT3(wt) [4] it was 4.18.
On the same counts, the results for `CC(C)c1cc(-c2n[nH]c(=O)n2-c2ccc3c(ccn3C)c2)c(O)cc1O` [Ganetespib] (top concentration tested 1000 nM) are 6.77, 23.1, 20.6 and 27.4.
